Experimental data as given in patent US5561131A, “Defaunation method” (Mallinckrodt Veterinary, Inc., priority 1991, dated 1996).

Tests used:
rumen ciliate protozoa [1] = test: In vitro activity of defaunation compounds against rumen ciliate protozoa; type: cell-based; conditions: 39° C., anaerobic, 3 hours, tested at 50, 150, 250 and 500 ppm
Protocol: Compounds of Table 1 were tested for their toxicity against rumen ciliate protozoa by firstly isolating protozoa from rumen liquor collected from faunated animals. The rumen liquor was then centrifuged at 500 g for five minutes and the supernatant discarded. The protozoal-rich sediment was then reconstituted in McDougal's artificial saliva. Residual bacteria were suppressed by using a combination of two antibiotics at low concentration. Nitrogen and energy substrate was optimized for the protozoal preparation. At all times the protozoal preparation was maintained at 39° C. and kept anaerobic.
Sixty milligrams of each the compounds of Table 1 were dissolved in 1.2 ml of dimethyl sulphoxide and dispersed in triplicate to achieve a final concentration of 50, 150, 250 and 500 ppm. Ten milliliters of protozoal preparation was then added to each tube. After every second compound, control tubes were included which contained everything except for compound. The tubes, to which a 5 ml glass syringe was attached, were then incubated for 3 hours in a water bath at 39° C. The production of gas causes the syringe plunger to be displaced.
At the end of the incubation period, the volume of gas produced was recorded and the viability of the protozoa assessed visually using a microscope. The toxicity of the compounds to protozoa was assessed from both the reduction in gas produced relative to the control and by direct observation of the protozoa for movement of cilia.

rumen bacteria [2] = test: Bacterial viability in sheep after administering defaunation compounds; type: in vivo; conditions: gas production one week after dosing vs pre-dosing
Protocol: In order to establish what effect the compounds had on the viability of rumen bacteria, a sample of rumen liquor was collected prior to dosing of the compound. The sample was withdrawn under vacuum using a pre-warmed tube inserted into the rumen through a rumen cannula. The sample was collected in a pre-warmed (39° C.) flask, gassed with carbon dioxide and covered. Two-pre-warmed 30 ml centrifuge tubes were then filled with well mixed rumen liquor and centrifuged at 2000 rpm for 5 minutes. Half the volume of each tube was then poured into another pre-warmed tube without disturbing the sediment. Three lots of 10 ml of this rumen liquor were then pipetted into 15 ml tubes which contained 10 μL of urea solution (40% w/v and 300 μL of glucose solution (50% w/v). The urea and glucose acted as substrate for the bacteria. The tubes were then gassed with carbon dioxide, stoppered and placed in a water bath at 39° C. After 10 minutes a 5 ml glass syringe was secured into the stoppers (through which a hypodermic needle had been inserted) and the gas collected for five hours and recorded.
This bacterial viability measure was then repeated one week after dosing with each of the compounds referred to in Table 1. Defaunation compositions were prepared according to the method of Example 1. The amount of gas produced was then compared with the pre-dosing level. The criterion for classifying post-dosing bacterial viability is shown below:
Poor--reduction in post-dosing gas production relative to pre-dosing levels.
OK--post-dosing gas production the same as pre-dosing levels.
Good--increase in post-dosing gas production relative to pre-dosing levels.

mice = test: Mouse safety assessment; type: in vivo; conditions: oral gavage, 830, 415 and 217 mg/kg, observed for 2 days
Protocol: Compounds of Table 1 chosen for testing in sheep were first tested in mice for signs of toxicity. Because sheep are approximately 5 times more sensitive than mice to compounds dosed orally, the dose rates applied to mice were 5 times greater than the target dose rate of 500 ppm. in rumen liquor (83 mg/kg live weight) used for sheep. Each compound was screened at three different dose levels, high (830 mg/kg), medium (415 mg/kg) and low (217 mg/kg).
252 mg of compound was used for dilution into a high medium and low dose rate. 252 mg of compound was mixed with 3 ml of G1284 solution (4% w/v ethoxylated castor oil and 0.05% w/v simethicone), to form the high dose composition. The medium dose composition was formed by diluting 1.5 ml of the high dose with 1.5 ml of G1284 solution. The low dose composition was formed by diluting 1.5 ml of the medium dose with 1.5 ml of G1284 solution. Before the high dose could be diluted it was first manually ball milled in an effort to produce a fine suspension of the compound.
All mice were weighed before dosing to calculate the appropriate dose rate. The calculation for dose rate was: [formula]
Each mouse was dosed using the Gavage method. With this method the mouse is dosed orally by way of an angled hypodermic needle (18 g) with a smooth spherical end. It is gently placed down the esophagus. All care must be taken not to force the needle and injure the esophagus or dose into the lungs.
Observations were made at 10, 30, 60 and 120 minutes after dosing, then every 1 or 2 hours for the first 6 hours.
Mice were usually observed for 2 days.
Typically, few compounds fell within the poor classification. The majority of compounds tested were either in the fair or good classification.

rumen bacteria [3] = test: In vitro bacterial gas inhibition; type: cell-based; conditions: at the concentration known to kill protozoa
Protocol: Compounds of Table 1 were also tested for toxicity bacteria. This involved removing protozoa from rumen liquor by centrifugation at 2,000 g for 5 minutes and collecting the bacterial rich supernatant. Nitrogen and energy substrate was added to the bacterial preparation which was then dispensed in triplicate 10 ml volumes over the same range of compound concentrations (50, 150, 250 and 500 ppm.) referred to in Example 2. Control tubes were placed after every second compound to enable the inhibition of gas resulting from the compound to be assessed. […] It can be seen that these compounds are selective in their mode of action, in that they are more toxic to protozoa than bacteria.

[4] = Effect of defaunation compounds on feed intake of sheep; type: in vivo; conditions: after dosing vs pre-dosing intake
Protocol: Sheep were allowed a minimum of three weeks to adapt to their ration of 900 g of oaten chaff and 100 g of Lucerne chaff. The pre-dosing level of intake for each animal was established from the mean of five days intake immediately prior to dosing. Any effects of administering the compound on feed intake was then determined by measuring the level of feed intake after dosing.
The criteria of classifying the effect on food intake are shown below.
Poor--greater than 50% reduction in feed intake during the first week after dosing.
Fair--greater than 50% reduction in feed intake on the day following dosing but less then 50% reduction one week after dosing.
OK--transient drop in feed intake which is less than 50% on the day after dosing.
Good--No reduction in feed intake following dosing.

rumen ciliate protozoa [5] = test: Protozoal reduction in sheep; type: in vivo; design: concentration or dose not given beside the values; conditions: one week after dosing, relative to predosing numbers
Protocol: Defaunation compositions were prepared according to the method of Example 1.
Prior to dosing of the compound, a sample of rumen liquor (200 ml) was withdrawn to establish basal numbers of protozoa.
The sample was collected using a stomach tube, inserted into the rumen via a rumen cannula (fistulated animals) or per esophagus (intact animals). After straining the sample was well mixed using a magnetic stirrer and a 0.5 ml sample was withdrawn and added to 49.5 ml of a crystal violet stain. Protozoa were counted using a microscope and a Hawksley counting chamber.
One week after administering the compound, another rumen liquor sample was collected (as described above) and examined for the presence of protozoa. Where rumen ciliate protozoa were undetectable, a reduction or inhibition value of 100% was recorded. In general, most compounds expressed a strong inhibitory effect on protozoal populations.

Row | SMILES | Conc Required to Kill all Protozoa (rumen ciliate protozoa [1]) [ppm] | Bacterial Viability (rumen bacteria [2]) | Mouse Safety Assessment (mice) | Bact. Gas Inhibition at the conc. required to kill protozoa (rumen bacteria [3]) | Feed Intake [4] | Protozoal Reduction (rumen ciliate protozoa [5]) [%]
1 | Clc1nc(Cl)nc(Nc2cc(Cl)c(Cl)c(Cl)c2)n1 [Compound 24] | 150 | Okay | Good | 67 | Good | 100
2 | N#Cc1cccc(Nc2nc(Cl)nc(Cl)n2)c1 [Compound 19] | 250 | Poor | Fair (>2 mice sick) | 50 | Good | 100
3 | Clc1nc(Cl)nc(Nc2ccc(Br)cc2)n1 [Compound 3] | 250 | Good | – | 45 | Good | 100
4 | COc1ccc(Nc2nc(Cl)nc(Cl)n2)cc1 [Compound 5] | 250 | Poor | Good | 33 | Fair | 100
5 | Cc1cc(C)c(Nc2nc(Cl)nc(Cl)n2)c(C)c1 [Compound 9] | 250 | Good | Good | 41 | Good | 88
6 | CN(c1ccc(Cl)c(Cl)c1)c1nc(Cl)nc(Cl)n1 [Compound 29] | 150 | Good | Fair (>2 mice sick) | 41 | Good | 98
7 | O=[N+]([O-])c1cccc(Nc2nc(Cl)nc(Cl)n2)c1 [Compound 16] | 250 | Good | – | 47 | Good | 72
8 | Oc1ccc(Nc2nc(Cl)nc(Cl)n2)cc1 [Compound 4] | 250 | Poor | – | 43 | Poor (greater than 50% reduction between day 2 to day 8) | 100
9 | Clc1nc(Cl)nc(Nc2ccc(-c3ccccc3)cc2)n1 [Compound 25] | 150 | – | – | 53 | – | –
10 | Cc1ccc(Nc2nc(Cl)nc(Cl)n2)cc1[N+](=O)[O-] [Compound 26] | 250 | – | – | 47 | – | –
11 | CC(C)(C)c1ccc(Nc2nc(Cl)nc(Cl)n2)cc1 [Compound 20] | 150 | Okay | Fair (>2 mice sick) | 55 | Good | 100
